# Read-outs that look alike come from different tables or passages of the source.
# Tests used:
# [1] = target: FKBP12 (Homo sapiens, UniProt P62942); experiment: competitive fluorescence polarization assay, binding to FKBP12
# Description: (§1) All macrocyclic compounds were tested in a competitive fluorescence polarization assay for binding towards FKBP51 as well as the homologs FKBP12, FKBP12.6 and FKBP52 (Table 1).
# (§2) Example 8: […] of the Macrocyclic FKBP51 Ligands by SPPS
# [2] = target: FKBP12.6 (Homo sapiens, UniProt P68106); experiment: competitive fluorescence polarization assay, binding to FKBP12.6
# Description: as §1, §2
# [3] = target: T1, FKBP51FK1 (Homo sapiens, UniProt Q13451); experiment: biochemical
# T1 sequence (Q13451 42-130 limits assumed): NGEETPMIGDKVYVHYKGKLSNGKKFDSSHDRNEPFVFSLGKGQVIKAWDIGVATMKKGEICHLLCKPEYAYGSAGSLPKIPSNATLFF
# Description: as §1, §2
# [4] = Ki [nM] FKBP51FK1, Table 1, competitive Fluorescence Polarization Assay
# [5] = Table 1, competitive Fluorescence Polarization Assay, read-out: Ki [nM] FKBP12
# [6] = Table 1, competitive Fluorescence Polarization Assay, read-out: Ki [nM] FKBP12.6
# Sequence of FKBP12 (P62942 whole entry): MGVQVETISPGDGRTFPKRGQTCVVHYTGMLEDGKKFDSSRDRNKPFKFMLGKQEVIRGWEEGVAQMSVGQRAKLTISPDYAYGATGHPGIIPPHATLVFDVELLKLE
# Sequence of FKBP12.6 (P68106 whole entry): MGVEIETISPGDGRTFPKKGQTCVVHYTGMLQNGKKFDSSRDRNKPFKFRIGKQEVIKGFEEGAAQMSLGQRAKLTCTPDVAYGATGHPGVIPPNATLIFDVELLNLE
SMILES,"Ki ([1]; Table 2, read-out: FKBP12 Ki)","Ki ([2]; Table 2, read-out: FKBP12.6 Ki)","Ki [1, 5]","Ki [2, 6]",further results
"COc1ccc(CC[C@H]2OC(=O)[C@@H]3CCCCN3C(=O)[C@@H](C3CCCCC3)NC(=O)[C@@H](C)NC(=O)COc3cccc2c3)cc1OC [Compound 84, (2R,5S,12R,15R)-12-cyclohexyl-2-[2-(3,4-dimethoxyphenyl)ethyl]-15-methyl-3,19-dioxa-10,13,16-triazatricyclo[18.3.1.0^5,10]tetracosa-1(24),20,22-triene-4,11,14,17-tetrone]",> 80000 nM,> 80000 nM,–,–,–
"COc1ccc(CC[C@H]2OC(=O)[C@@H]3CCCCN3C(=O)[C@@H](C3CCCCC3)NC(=O)C(C)(C)NC(=O)COc3cccc2c3)cc1OC [Compound 85, (2R,5S,12R)-12-cyclohexyl-2-[2-(3,4-dimethoxyphenyl)ethyl]-15,15-dimethyl-3,19-dioxa-10,13,16-triazatricyclo[18.3.1.0^5,10]tetracosa-1(24),20,22-triene-4,11,14,17-tetrone]",> 80000 nM,> 80000 nM,–,–,"Ki ([3]; affinity, same values as Table 2 FKBP51FK1): 290 nM"
COc1ccc(CC[C@H]2OC(=O)[C@@H]3CCCCN3C(=O)[C@@H](C3CCCCC3)c3cc(OC)c(c(OC)c3)OCCCOc3cccc2c3)cc1OC [Compound 56],–,–,384 nM,211 nM,"Ki [3, 4]: 67 nM"
COc1ccc(CC[C@H]2OC(=O)[C@@H]3CCCCN3C(=O)[C@@H](C3CCCCC3)c3cc(OC)c(OC)c(c3)OCCCC(=O)COc3cccc2c3)cc1OC [Compound 61b],–,–,58 nM,37 nM,"Ki [3, 4]: 28 nM"
COc1ccc(CC[C@H]2OC(=O)[C@@H]3CCCCN3C(=O)[C@@H](C3CCCCC3)c3cc(OC)c(c(OC)c3)OCCOc3cccc2c3)cc1OC [Compound 55],–,–,412 nM,190 nM,"Ki [3, 4]: 64 nM"
"COc1ccc(CC[C@H]2OC(=O)[C@@H]3CCCCN3C(=O)[C@@H](C3CCCCC3)NC(=O)C3(CC3)NC(=O)COc3cccc2c3)cc1OC [Compound 86, (2′R,5′S,12′R)-12′-cyclohexyl-2′-[2-(3,4-dimethoxyphenyl)ethyl]-3′,19′-dioxa-10′,13′,16′-triazaspiro[cyclopropane-1,15′-tricyclo[18.3.1.0^5,10]tetracosane]-1′(24′),20′,22′-triene-4′,11′,14′,17′-tetrone]",> 80000 nM,> 80000 nM,–,–,–
COc1ccc(CC[C@H]2OC(=O)[C@@H]3CCCCN3C(=O)[C@@H](C3CCCCC3)c3cc(OC)c(c(OC)c3)OCCOC/C=C/COc3cccc2c3)cc1OC [33-(E)],–,–,534 nM,361 nM,–
"COc1ccc(CC[C@H]2OC(=O)[C@@H]3CCCCN3C(=O)[C@@H](C3CCCCC3)NC(=O)CCCNC(=O)COc3cccc2c3)cc1OC [Compound 95, (2R,5S,12R)-12-cyclohexyl-2-[2-(3,4-dimethoxyphenyl)ethyl]-3,21-dioxa-10,13,18-triazatricyclo[20.3.1.0^5,10]hexacosa-1(26),22,24-triene-4,11,14,19-tetrone]",–,–,–,–,affinity (in words) [3]: no binding
"COc1ccc(CC[C@H]2OC(=O)[C@@H]3CCCCN3C(=O)[C@@H](C3CCCCC3)NC(=O)[C@H]3CCCN3C(=O)COc3cccc2c3)cc1OC [Compound 90, (9R,12R,19S,22R)-12-cyclohexyl-22-[2-(3,4-dimethoxyphenyl)ethyl]-2,21-dioxa-5,11,14-triazatetracyclo[21.3.1.0^5,9.0^14,19]heptacosa-1(26),23(27),24-triene-4,10,13,20-tetrone]",> 80000 nM,> 80000 nM,–,–,–
"COc1cc2cc(c1)[C@@H](CCc1ccc(OC)c(OC)c1)OC(=O)[C@@H]1CCCCN1C(=O)[C@@H](C1CCCCC1)NC(=O)C(C)(C)NC(=O)CO2 [Compound 104, (2R,5S,12R)-12-cyclohexyl-2-[2-(3,4-dimethoxyphenyl)ethyl]-22-methoxy-15,15-dimethyl-3,19-dioxa-10,13,16-triazatricyclo[18.3.1.0^5,10]tetracosa-1(24),20,22-triene-4,11,14,17-tetrone]",–,–,–,–,"affinity (in words) [3]: bound similarly to the glycine derivative 83; Ki ([3]; FKBP51FK1 Ki [μM], Table 2, [a] standard error from three, [c] error from two independent measurements): 390 nM"
COc1ccc(CC[C@H]2OC(=O)[C@@H]3CCCCN3C(=O)[C@@H](C3CCCCC3)c3cc(OC)c(c(OC)c3)OCCOC/C=C\COc3cccc2c3)cc1OC [33-(Z)],–,–,309 nM,186 nM,–

# Reference: patent publication US11834463B2, “High affinity macrocyclic FKB51-inhibitors for treatment of psychiatric disorders” (priority 2020, dated 2023)
